“And” between values parts separate entries of the source, which are not always exact repeats. Identical values can stand only once.
Assays:
[1] = system: mice; experiment: Hot plate test; conditions: mouse, in vivo
Description: A hot plate apparatus (model HZ66-ZH-YLS-6B, Shanghai, China), maintained at 55 ± 1 °C, was used to test the pain in response to a thermal stimulus. Mice in the control condition showing initial nociceptive responses between 5 and 10 s were selected for the experiment. The latency to the sign of hind paw licking or jumping to avoid heat nociception was taken as the index of the nociceptive threshold. […] A group of mice treated with morphine dissolved in physiological saline was used as a positive control.
(§1) The results are expressed as the mean ± standard error of the mean (SEM). Statistical significance was calculated using one- or two-way analysis of variance followed by the Student-Newman-Keuls and Bonferroni’s post hoc tests. Significance was defined as p < 0.05.

[2] = system: mice; experiment: Formalin-induced paw licking; conditions: mouse, in vivo, ip
Description: A formalin test was performed according to the method described by Owoyele et al.. Mice were intraperitoneally (i.p.) injected with test samples dissolved in 100 μL of saline and positive control animals were intraperitoneally injected with morphine dissolved in saline. The control group received the same volume of saline. Animals were injected with 20 μL of 5% formalin at the plantar surface of right hind paw after intraperitoneally injected with test samples. They were then placed into open polyvinyl cages (20 cm × 40 cm × 15 cm) individually. The time spent for licking the injected paw by each mouse was recorded by a digital video camera (early phase or neurogenic pain, 0–15 min post-injection and late phase or inflammatory pain, 15–30 min post-injection).
as §1

[3] = system: mice; experiment: Tail-flicking test; conditions: mouse, in vivo, ip
Description: Mice with pain threshold of 4–6 s were selected for the tail-flicking test. […] A photothermal pain detector (YLS-12A, Jinan, Shandong, China) was used to measure the pain threshold of mice subjected to intense heat and the light beam of the detector was focused on the middle of mouse tail. All of the animals were intraperitoneally injected with saline containing different concentrations of samples and control group received the same volume of saline. Tail withdrawal latency was measured as the time taken to withdraw the tail from the light beam.
as §1

CN1CC[C@]23c4c5ccc(O)c4O[C@H]2[C@@H](O)C=C[C@H]3[C@H]1C5 [morphine]
hot plate latency [1]: 12.5 s and 14.3 s and 18.6 s
paw licking time, early phase [2]: 94 s and 71 s and 60 s
paw licking time, late phase [2]: 421 s and 275 s and 211 s
tail withdrawal latency [3]: 6.8 s and 8.9 s and 11.3 s

— PMC5308240, “A Novel Toxin from Haplopelma lividum Selectively Inhibits the NaV1.8 Channel and Possesses Potent Analgesic Efficacy” (Toxins, 2016)
